These results are taken from patent publication US6994981B2, “Modulators of paraptosis and related methods” (The Buck Institute, priority 2002, dated 2006).

The subject of one test is ERK-1/2. Kind of test: Western blot of ERK-1/2 phosphorylation in striatal neurons. To be noted: after 10–30 min of SP stimulation; total ERK-1/2 unchanged. In kind it is cell-based, rat. As to the method:
For the transfected 293T cells, cells were washed with cold PBS after incubation with SP the time indicate and homogenized on lysis buffer (150 mM NaCl, 1% Triton X-100, 50 mM Tris HCL pH8.0). Cytoplasmic extracts were collected after 10 min centrifugation at 14,000 rcf. Total amount of protein was quantified by Bradford assay and electrophoresis of equal amounts of total protein was performed on SDS-polyacrylamide gels. Separated proteins were transferred to polyvinylidene fluoride membranes at 4° C. for Western blot analysis. Membranes were probed with a 1:1000 dilution of anti-ERK-1/2 or anti phospho-ERK-1/2 (BioSource). The blots were incubated in a horseradish peroxidase coupled secondary antibody for 1 h followed by enhanced chemiluminescence detection of the proteins with […]™ ECL detection (Amersham, Arlington Heights, Ill.). For striatal neurons, total ERK-1/2 was immunoprecipitated using superparamagnetic Microbeads conjugated to protein A, following manufacture's instructions (MACS, Miltenyi Biotec), and then developed by Western blot against either anti-ERK-1/2 or anti phospho-ERK-1/2.
A general note: In western blotting, separated proteins are transferred to a membrane and probed.

A further test has as its system cytoplasmic calcium. Kind of test: Imaging of cytoplasmic calcium in single striatal cells. In kind it is cell-based. As to the method:
Single-cell imaging was performed in a Merlin imaging facility (Olympus America, USA) using an Olympus IX70 inverted epifluorescence microscope equipped with a 40× oil immersion objective and a Spectramaster monochromator (Life Science Resources, Cambridge, UK) (excitation, 340 and 380 nm; emission >505 nm). Cells were loaded with 3 μM Fura-2 AM (from TEF LABS, Texas, USA) for 30 min in incubation medium containing (in mM): 120 NaCl, 3.5 KCl, 1.3 CaCl2, 0.4 KH2PO4, 20 TES buffer, 5 NaHCO3, 1.2 Na2SO4, 15 Glucose, 1.2 MgCl2, pH adjusted to 7.4 with NaOH. 30 μg/ml bovine serum albumin was also added. Experiments were performed in a non-perfusing thermostatted chamber (37° C.) with incubation medium without bovine serum albumin (Castilho et al., J. Neurosci. 18:10277–10286 (1998)).

For test [1], the system named is caspases, calpains, proteasome. Kind of test: Protease activation during SP-induced cell death, substrate hydrolysis in cytosolic extracts of NK1R-transfected 293T cells. In kind it is biochemical, human. As to the method:
Preparation of cell-free extract for kinetic studies: 293T cells seeded at the density of 2 million cells per 10 cm dish were transfected with NK1R cDNA using Lipofectamine 2000 (Gibco) according the instructions provided by the manufacturer. After 24 hr 10 nM SP was added to half of the culture dishes. At 24 hr later the cells were washed with ice cold PBS and collected with a cell scraper. The cells pelleted at 700×g for 4 min were resuspended in cell lysis buffer at pH 7.4 containing 1 mM dithiothreitol at a ratio of 1:1 (v/v). After 30 min on ice the swelled cells were disrupted with 20 strokes using a 27 gauge needle and further spun at 16,000×g for 30 min. The pellet was discarded and the supernatant which represents the cytosolic fraction was aliquoted and stored at −80° C. or used in the kinetic studies. The protein concentration was determined using the Bradford assay (Pierce).
For kinetic studies, the proteolytic activities were followed fluorometrically by monitoring AFC or AMC release from 100 μM of the corresponding substrates (Enzyme Systems Products): Caspase-1 like, Ac-YVAD-AFC; caspase-2, Ac-VDVAD-AFC; caspases-3 like, Ac-DEVD-AFC; caspase-6, Ac-VEID-AFC; caspase-8, Ac-IETD-AFC; caspase-9, Ac-LEHD-AFC. Calpain activity was monitored with 100 μM Suc-LY-AFC (succinyl-Leu-Tyr-7-amino-4-methylcoumarin, Enzyme Systems Products) at 5 μM and 5 mM CaCl2. The chymotrypsin activity of the proteasome was followed with 100 μM Suc-LLVY-AFC (succinyl-Leu-Leu-Val-Tyr-7-amino-4-methylcoumarin, Enzyme Systems Products), and cathepsins were assayed using 20 μM Z-FR-AMC (Benzyloxycarbonyl-Phe-Arg-7-amino-4-methylcoumarin, Bachem). A 10 μl aliquot of extract in the presence or absence of SP was added to 90 μl of substrate at the appropriate concentration and pH. The reaction was continuously monitored during 30 min and 37° C. in a fluorescence microplate reader (Molecular Devices). The instrument was set at excitation and emission wavelengths of 405 and 510 for AFC releasing group, and 370 and 460 nm, for AMC releasing group, respectively. The steady-state hydrolysis rates were obtained from the linear part of the curves.

Consider “SP: eleven amino acid neurotransmitter of the tachykinin family, ligand of NK1R”, for which the “amount of phosphorylated ERK-1/2” value with ERK-1/2 is listed as “increase”. Moreover, in the test with cytoplasmic calcium, the “change in cytoplasmic calcium” value is reported as “did not induce a detectable change”. Moreover, the “activation of calpains and chymotrypsin-like activity of the proteasome” value in test [1] is given as “no significant effect on the rates of substrate hydrolysis”. Besides, the “hydrolysis of substrates for initiator and executioner caspases” value in test [1] (10 nM SP, 24 hr) is reported as “no hydrolysis of substrates”. In test [1] (extracts with granzyme B added), the “DEVDase activity in response to SP stimulation” value was “no significant difference”.
